# Columns and labels:
# Type in all cases: in vivo, human
# leptin = test: Clinical trial: plasma leptin level (leptin resistance)
# Procedure: (§1) We conducted a clinical trial designed as randomized, placebo-controlled, double-blind, and two-way crossover on drug interaction in patients with type 2 diabetes mellitus. The clinical trial was conducted for 149 patients over a total of 16 weeks, in which the screening period was 2 weeks, the treatment period was 12 weeks, and the period of the evaluation of safety and follow-up was 2 weeks.
# (§2) In the screening stage, 64 subjects were selected from 149 participants, and the subjects who met the selection criteria were fasted for 2 hours before and after breakfast each day and subjected to a 2-week evaluation process of measuring and recording blood glucose levels. In the treatment stage, capsules containing placebo or CHP with different doses were randomly administered to 64 selected subjects once a day for 12 consecutive weeks.
# (§3) In the above experiment, a capsule containing CHP with a different dose or a placebo corresponding thereto was used, and each subject received a two-week dose (18 capsules=14+4) at one visit and was instructed to take 1 capsule before bedtime every day. In this case, the anti-diabetic drugs and other prescribed drugs currently being used were continuously taken. Each subject was assigned at the same rate as follows and administered with a placebo or a compound with a different dose, respectively. • Administration Group A: 3 mg of CHP+23 mg of zinc—16 subjects • Administration Group B: 9 mg of CHP+23 mg of zinc—16 subjects • Administration Group C: 15 mg of CHP+23 mg of zinc—16 subjects • Administration Group D: placebo (control)—16 subjects
# (§4) The present inventors confirmed the improvement of body mass index (BMI) and the improvement of leptin resistance, and the results are shown in Tables 3 and 4.
# Leptin is an appetite suppressing protein secreted from adipose cells, and is known as a hormone to act on the brain after being secreted from adipose tissue to suppress appetite and activate metabolism in the body, thereby reducing body weight. In the case of humans, the more obese people (the more adipose tissue), the higher the concentration of leptin in the blood. This indicates the resistance to leptin action.
# [1] = system: patients with type 2 diabetes mellitus; test: Clinical trial: evaluation of safety; details: CHP administration groups (3, 9, 15 mg of CHP+23 mg of zinc once a day, 12 weeks) vs placebo
# Procedure: as §1, §2
# In the above experiment, a capsule containing CHP with a different dose or a placebo corresponding thereto was used, and each subject received a two-week dose (18 capsules=14+4) at one visit and was instructed to take 1 capsule before bedtime every day. In this case, the anti-diabetic drugs and other prescribed drugs currently being used were continuously taken. […]
# [2] = system: glycated hemoglobin (HbA1c); test: Clinical trial: change in concentration of glycated hemoglobin (HbA1c) over 12 weeks
# Procedure: as §1, §2, §3
# The present inventors observed the change in concentration of HbA1c during the 12-week dosing period. Since the blood glucose level measured at one time point can change due to various factors, the change in glycated hemoglobin (HbA1c) was checked for the purpose of determining the pattern of long-term glycemic control, and the results are shown in Table 1 and FIG. 1.
# [3] = Clinical trial: improvement of body mass index (BMI)
# Procedure: as §1, §2, §3, §4
# [4] = Clinical trial: change in body weight over 12 weeks
# Procedure: as §1, §2, §3
# The present inventors observed the change in body weight of subjects through the 12-week experiment, and the results are shown in Table 2 and FIG. 2.
# [5] = Administration Group A: 3 mg of CHP+23 mg of zinc once a day
# [6] = Administration Group A: 3 mg of CHP+23 mg of zinc once a day, Baseline (Week 0)
# [7] = Administration Group A: 3 mg of CHP+23 mg of zinc once a day, Week 12
# [8] = Administration Group B: 9 mg of CHP+23 mg of zinc once a day
# [9] = Administration Group B: 9 mg of CHP+23 mg of zinc once a day, Baseline (Week 0)
# [10] = Administration Group B: 9 mg of CHP+23 mg of zinc once a day, Week 12
# [11] = Administration Group C: 15 mg of CHP+23 mg of zinc once a day
# [12] = Administration Group C: 15 mg of CHP+23 mg of zinc once a day, Baseline (Week 0)
# [13] = Administration Group C: 15 mg of CHP+23 mg of zinc once a day, Week 12
# [14] = all patient groups receiving CHP (3, 9, 15 mg+23 mg of zinc), 12 weeks
compound,measurement,setting,value
"O=C1NC(Cc2c[nH]cn2)C(=O)N2CCCC12 (centres unmarked) [CHP, cyclo(his-pro)]","Plasma leptin level, Change Value (From Week 0 to Week 12), Average",leptin; [5],0.59
same,"Plasma leptin level, Average",leptin; [6],10.93
same,"Plasma leptin level, Average",leptin; [7],9.66
same,"Plasma leptin level, Change Value (From Week 0 to Week 12), Average",leptin; [8],−3.42
same,plasma leptin level at week 12 compared to the reference value,leptin; [8],reduced to a statistically significant level
same,"Plasma leptin level, Average",leptin; [9],19.85
same,"Plasma leptin level, Average",leptin; [10],9.90
same,"Plasma leptin level, Change Value (From Week 0 to Week 12), Average",leptin; [11],−3.39
same,plasma leptin level at week 12 compared to the reference value,leptin; [11],reduced to a statistically significant level
same,"Plasma leptin level, Average",leptin; [12],12.93
same,"Plasma leptin level, Average",leptin; [13],10.59
same,side effects (evaluation of safety),[1],mild and moderate side effects that are not related to the CHP were observed
same,"HbA1c, Change Value (From Week 0 to Week 12), Average",[2]; [5],−0.21%
same,level of HbA1c at week 12 versus Administration Group D (control),[2]; [5],lower than that of Administration Group D
same,"HbA1c, Average","[2]; Administration Group A: 3 mg of CHP+23 mg of zinc once a day, Baseline (Week 0), type 2 diabetes patients",8.25%
same,"HbA1c, Average",[2]; [7],8.04%
same,"HbA1c, Change Value (From Week 0 to Week 12), Average",[2]; [8],−0.17%
same,level of HbA1c at week 12 versus Administration Group D (control),[2]; [8],lower than that of Administration Group D
same,"HbA1c, Average",[2]; [9],8.06%
same,"HbA1c, Average",[2]; [10],7.90%
same,"HbA1c, Change Value (From Week 0 to Week 12), Average",[2]; [11],−0.43%
same,level of HbA1c over time (FIG. 1),[2]; [11],reduced consistently until week 8
same,"HbA1c, Average",[2]; [12],8.49%
same,"HbA1c, Average",[2]; [13],8.08%
same,level of HbA1c compared to the control,[2]; [14],reduced compared to the control
same,"Body mass index (BMI), Change Value (From Week 0 to Week 12), Average",[3]; [5],−0.27 kg/m^2
same,"Body mass index (BMI), Average",[3]; [6],37.18 kg/m^2
same,"Body mass index (BMI), Average",[3]; [7],36.45 kg/m^2
same,"Body mass index (BMI), Change Value (From Week 0 to Week 12), Average",[3]; [8],0.16 kg/m^2
same,"Body mass index (BMI), Average",[3]; [9],36.29 kg/m^2
same,"Body mass index (BMI), Average",[3]; [10],36.59 kg/m^2
same,"Body mass index (BMI), Change Value (From Week 0 to Week 12), Average",[3]; [11],−0.28 kg/m^2
same,"Body mass index (BMI), Average",[3]; [12],37.23 kg/m^2
same,"Body mass index (BMI), Average",[3]; [13],37.48 kg/m^2
same,"Body weight, Change Value (From Week 0 to Week 12), Average",[4]; [5],-0.73 kg
same,"Body weight, Average",[4]; [6],109.11 kg
same,"Body weight, Average",[4]; [7],108.28 kg
same,"Body weight, Average",[4]; [9],103.56 kg
same,"Body weight, Average",[4]; [10],105.19 kg
same,"Body weight, Change Value (From Week 0 to Week 12), Average",[4]; [11],-0.92 kg
same,body weight over time (FIG. 2),[4]; [11],reduced consistently until week 12
same,"Body weight, Average",[4]; [12],103.94 kg
same,"Body weight, Average",[4]; [13],104.12 kg
same,weight gain / body weight compared to the control,[4]; [14],"less than the control, or the body weight was reduced"

# Source: US20210401880A1, “Pharmaceutical Composition For Preventing Or Treating Obesity, Containing CYCLO(HIS-PRO) As Active Ingredient” (Novmetapharma Co., Ltd., priority 2018, published 2021)
